Results as given in patent US20250319100A1, “ANTI-TUMOR COMBINED PREPARATION COMPRISING HYDROXYPROGESTERONE CAPROATE AND USE THEREOF” (SHENZHEN EVERGREEN THERAPEUTICS CO., LTD., priority 2021, published 2025).

What was measured:
4T1-hPD-L1 cells = assay: Tumor growth inhibition in Balb/c mice subcutaneously inoculated with 4T1 cells overexpressing human PD-L1; assay type: in vivo; conditions: for Tumor growth inhibition (result in words): FIG. 1, tumor volume growth trend post-administration
Method: Antibody Anti-PD-L1 was purchased from Rongchang Biopharmaceuticals (Yantai) Co., Ltd., batch number: RC98-1-A20170426, with a storage solution concentration of 6.87 mg/ml, dissolved in 0.9% sodium chloride solution. Prior to each administration, the Anti-PD-L1 was prepared by diluting it in 0.9% sodium chloride solution to obtain a concentration of 1 mg/ml.
Hydroxyprogesterone Caproate (OHPC) was purchased from Hongyan Pharmaceutical and Chemical Co., Ltd., as a powder. Prior to each administration, OHPC powder was dissolved in DMSO. Once fully dissolved, it was diluted in sesame oil to obtain an OHPC concentration of 4 mg/ml for the investigational drug solution.
Murine breast cancer 4T1 cells were purchased from Beijing Biosynthgene Biotech Co., Ltd. Cells were cultured at 37° C. and 5% CO2 in DMEM culture medium containing 10% inactivated fetal bovine serum. The 4T1 cells were genetically modified using conventional methods to overexpress human PD-L1, and these cells were named 4T1-hPD-1.
Female Balb/c mice (6-9 weeks old, weighing 16-22 g), SPF grade, were subcutaneously inoculated with 5×10^4 cells/0.1 ml concentration of 4T1-hPD-1 cells suspended in PBS at a volume of 0.1 ml on the right side. When the average tumor volume reached approximately 100 mm3, appropriate mice were selected based on tumor volume and weight and were evenly distributed into four experimental groups, each with 8 mice. Drug administration commenced on the same day as outlined in the table below:
Throughout the observation period, tumor volume and animal weight were measured weekly, and the values were recorded. Upon completion of the observation period, the experiment was concluded.
Measurements of tumor volume were conducted twice a week post-grouping using a vernier caliper. Prior to euthanasia, tumor dimensions including the longest and shortest diameters were measured. The formula used to calculate tumor volume: Tumor Volume=0.5×Longest Diameter×Shortest Diameter^2.
Ti represents the mean tumor volume of the treatment group on day i of drug administration, TO denotes the mean tumor volume of the treatment group on day 0 of drug administration. Vi stands for the mean tumor volume of the solvent control group on day i of drug administration, and VO indicates the mean tumor volume of the solvent control group on day 0 of drug administration.
Original data from observations and measurements were recorded. Analysis and processing were based on this raw data. Results were expressed as Mean±Standard Error of Mean (SEM). Statistical analysis was performed on tumor volume data, where P<0.05 was considered statistically significant. Analysis was conducted considering both statistical and biological significance.

[1] = tested on: CD8+ T cells in tumor tissue; assay: Infiltration of CD8+ T cells in tumor tissue (CD8 staining of paraffin tumor sections); assay type: in vivo, Balb/c mice; conditions: FIGS. 2 and 3, CD8 staining density IOD/area, p<0.01 OHPC group vs control group
Method: FIG. 2 illustrates the infiltration of CD8 T cells in mouse tumors post-administration (400× magnification). FIG. 3 presents the analysis of CD8 staining density on tumor sections after administration, represented in integrated optical density (IOD)/area, where ** denotes p<0.01 compared between the OHPC group and the control group. At the conclusion of the experiment, tumor tissue was embedded in paraffin, sectioned, and stained for CD markers. This was conducted to compare the infiltration of CD8+ T cells within tumors across different groups.

CCCCCC(=O)O[C@]1(C(C)=O)CC[C@H]2[C@@H]3CCC4=CC(=O)CC[C@]4(C)[C@H]3CC[C@@]21C [OHPC, 17α-Hydroxyprogesterone caproate]
Tumor Volume Day 17 (4T1-hPD-L1 cells; Day 17, Anti-PD-L1 10 mg/kg intravenous and/or OHPC 20 mg/kg intramuscular, twice per week, Mean ± Standard Error): 1203 ± 384 mm^3 | TGITV (tumor growth inhibition rate by tumor volume) (4T1-hPD-L1 cells; Day 17 versus vehicle (PBS) control, Anti-PD-L1 10 mg/kg intravenous and/or OHPC 20 mg/kg intramuscular, twice per week): −14% | Tumor growth inhibition (result in words) (4T1-hPD-L1 cells): no inhibitory effect | Tumor growth inhibition (result in words) (4T1-hPD-L1 cells; listed as hydroxyprogesterone caproate): augments the anti-tumor activity of the monoclonal antibody Anti-PD-L1 | Tumor Volume Pre-administration (4T1-hPD-L1 cells; baseline before first dose, Mean ± Standard Error, 8 mice per group): 87 ± 24 mm^3 | Infiltration of CD8+ T cells in tumor tissue (result in words) [1]: significantly enhances the infiltration of CD8+ T cells | Infiltration of CD8+ T cells in tumor tissue (result in words) ([1]; listed as Hydroxyprogesterone Caproate (OHPC)): notably enhanced the infiltration of CD8+ T cells
